Where two headings read alike, the source gives them in different places.
How the values were obtained:
PARG = PARG (Homo sapiens, UniProt Q86W56); assay: Biochemical assay (PARG, TFMU-ADPr substrate)
HCC1806 = assay: Cell viability assay (CellTiter-Glo); format: cell-based, Human
[1] = 4 nM PARG, 66.2 uM TFMU-ADPr, 3 min at room temperature
[2] = Homo sapiens, HCC1806, 168 h, HCC1806, 7 days, CellTiter-Glo, read-out: IC50 (nM) in cell viability assay

PARG, sequence (Q86W56 whole entry): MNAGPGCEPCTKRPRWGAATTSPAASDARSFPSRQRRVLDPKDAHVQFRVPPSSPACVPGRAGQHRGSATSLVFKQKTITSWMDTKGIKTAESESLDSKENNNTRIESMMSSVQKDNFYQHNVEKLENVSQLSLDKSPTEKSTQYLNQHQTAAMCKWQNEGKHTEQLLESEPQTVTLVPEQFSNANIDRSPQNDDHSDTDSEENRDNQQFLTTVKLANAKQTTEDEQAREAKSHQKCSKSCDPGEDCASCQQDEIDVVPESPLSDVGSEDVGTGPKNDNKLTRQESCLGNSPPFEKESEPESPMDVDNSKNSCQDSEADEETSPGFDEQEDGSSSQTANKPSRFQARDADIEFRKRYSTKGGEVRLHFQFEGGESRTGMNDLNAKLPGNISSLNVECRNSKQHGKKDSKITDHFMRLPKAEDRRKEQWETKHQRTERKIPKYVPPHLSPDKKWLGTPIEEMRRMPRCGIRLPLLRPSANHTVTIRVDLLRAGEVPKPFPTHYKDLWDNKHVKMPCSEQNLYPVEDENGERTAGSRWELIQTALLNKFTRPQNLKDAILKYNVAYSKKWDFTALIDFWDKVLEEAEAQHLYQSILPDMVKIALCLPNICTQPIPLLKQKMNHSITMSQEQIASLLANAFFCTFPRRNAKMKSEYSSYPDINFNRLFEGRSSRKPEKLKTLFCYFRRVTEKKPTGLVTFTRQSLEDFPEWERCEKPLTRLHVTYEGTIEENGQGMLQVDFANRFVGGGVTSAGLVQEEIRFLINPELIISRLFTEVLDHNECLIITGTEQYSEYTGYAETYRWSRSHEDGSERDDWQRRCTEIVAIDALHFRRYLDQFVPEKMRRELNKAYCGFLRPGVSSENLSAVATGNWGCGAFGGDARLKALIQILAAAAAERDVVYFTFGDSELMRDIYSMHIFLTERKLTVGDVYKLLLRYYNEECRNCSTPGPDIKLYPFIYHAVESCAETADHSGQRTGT

Compound | IC50 (PARG; [1]) | IC50 (PARG; PARG, TFMU-ADPr substrate) | IC50 (HCC1806; [2]) | also measured
N#CC1(NS(=O)(=O)c2ccc3c(C4=CCC5(CNC5)C4)nc(-c4nnc(C(F)F)s4)n3c2)CC1 [Example 22, N-(1-cyanocyclopropyl)-3-(5-(difluoromethyl)-1,3,4-thiadiazol-2-yl)-1-(2-azaspiro[3.4]oct-6-en-6-yl)imidazo[1,5-a]pyridine-6-sulfonamide] | < 100 nM | 5.17 nM | – | IC50 (HCC1806; Homo sapiens, HCC1806, 168 h, read-out: IC50 (nM) in cell viability assay, HCC1806, 7 days, CellTiter-Glo): > 30000 nM; IC50 (HCC1806; read-out: IC50 (nM) in cell viability assay, HCC1806, 7 days, CellTiter-Glo): 30000 nM
CN(C)C(=O)N1CC2(CC=C(c3nc(-c4nnc(C(F)F)s4)n4cc(S(=O)(=O)NC5(C#N)CC5)ccc34)C2)C1 [Example 25, 6-(6-(N-(1-cyanocyclopropyl)sulfamoyl)-3-(5-(difluoromethyl)-1,3,4-thiadiazol-2-yl)imidazo[1,5-a]pyridin-1-yl)-N,N-dimethyl-2-azaspiro[3.4]oct-6-ene-2-carboxamide] | < 100 nM | 4.84 nM | < 500 nM | IC50 (HCC1806; HCC1806, 7 days, CellTiter-Glo, read-out: IC50 (nM) in cell viability assay): 490 nM
Cc1cnc(-c2cnn3c(N4CCN(C(=O)C(C)C)CC4)cc(S(=O)(=O)NC4(C#N)CC4)cc23)s1 [Example 29, N-(1-cyanocyclopropyl)-7-(4-isobutyrylpiperazin-1-yl)-3-(5-methylthiazol-2-yl)pyrazolo[1,5-a]pyridine-5-sulfonamide] | < 100 nM | 94.6 nM | 5000 to 30000 nM | –
Cc1nnc(-c2cnn3c(N4CCN(C(=O)C(C)C)CC4)cc(S(=O)(=O)NC4(C#N)CC4)cc23)s1 [Example 30, N-(1-cyanocyclopropyl)-7-(4-isobutyrylpiperazin-1-yl)-3-(5-methyl-1,3,4-thiadiazol-2-yl)pyrazolo[1,5-a]pyridine-5-sulfonamide] | < 100 nM | 88.9 nM | > 30000 nM | –
N#CC1(NS(=O)(=O)c2cc(N3CCC(N)CC3)c3cnc(-c4nnc(C(F)(F)F)s4)n3c2)CC1 [Example 263, 8-(4-aminopiperidin-1-yl)-N-(1-cyanocyclopropyl)-3-(5-(trifluoromethyl)-1,3,4-thiadiazol-2-yl)imidazo[1,5-a]pyridine-6-sulfonamide] | – | – | 4500 nM | –
CC(C)C(=O)NC1CCCN(c2cc(S(=O)(=O)NC3(C#N)CC3)cn3c(-c4nnc(C(F)(F)F)s4)ncc23)C1 (centres unmarked) [Example 267, N-(1-(6-(N-(1-cyanocyclopropyl)sulfamoyl)-3-(5-(trifluoromethyl)-1,3,4-thiadiazol-2-yl)imidazo[1,5-a]pyridin-8-yl)piperidin-3-yl)isobutyramide] | – | – | 1500 nM | –
N#CC1(NS(=O)(=O)c2cc(C#Cc3cncs3)c3cnc(-c4nnc(C(F)F)s4)n3c2)CC1 [Example 374, N-(1-cyanocyclopropyl)-3-(5-(difluoromethyl)-1,3,4-thiadiazol-2-yl)-8-(thiazol-5-ylethynyl)imidazo[1,5-a]pyridine-6-sulfonamide] | – | – | 2320 nM | –
N#CC1(NS(=O)(=O)c2cc(C#CC3CCOC3)c3cnc(-c4nnc(C(F)F)s4)n3c2)CC1 (centres unmarked) [Example 375, N-(1-cyanocyclopropyl)-3-(5-(difluoromethyl)-1,3,4-thiadiazol-2-yl)-8-((tetrahydrofuran-3-yl)ethynyl)imidazo[1,5-a]pyridine-6-sulfonamide] | – | – | 855 nM | –
N#CC1(NS(=O)(=O)c2cc(C#Cc3c[nH]cn3)c3cnc(-c4nnc(C(F)F)s4)n3c2)CC1 [Example 376, 8-((1H-imidazol-4-yl)ethynyl)-N-(1-cyanocyclopropyl)-3-(5-(difluoromethyl)-1,3,4-thiadiazol-2-yl)imidazo[1,5-a]pyridine-6-sulfonamide] | – | – | 30000 nM | –
C[C@H]1CN(c2cc(S(=O)(=O)NC3(C)COC3)cn3c(-c4nnc(C(F)F)s4)nc(Cl)c23)C[C@H](CO)O1 [Example 397, 1-chloro-3-(5-(difluoromethyl)-1,3,4-thiadiazol-2-yl)-8-((2R,6S)-2-(hydroxymethyl)-6-methylmorpholino)-N-(3-methyloxetan-3-yl)imidazo[1,5-a]pyridine-6-sulfonamide] | – | – | 530 nM | –

Reference: US20260258035A1, “FIVE-MEMBERED AND SIX-MEMBERED NITROGEN-CONTAINING COMPOUND, AND INTERMEDIATE, PREPARATION METHOD AND USE THEREOF” (HANGZHOU SYNRX THERAPEUTICS BIOMEDICAL TECHNOLOGY CO., LTD., priority 2022, published 2026)
